Assay results: patent US10829520B2, “Beta-hairpin peptidomimetics” (POLYPHOR AG, priority 2015, dated 2020)
Where two headings read alike, the source gives them in different places. Where a SMILES comes first, the peptide text is derived from it. Bridges are numbered along the chain shown (N, C = ends). Roman numbers before positions name the chains, in order. [ ]: non-standard residue; d: D form. Tle = CC(C)(C)[C@H](N)C(=O)O; dDab = NCC[C@@H](N)C(=O)O; Nle = CCCC[C@H](N)C(=O)O; Dab = NCC[C@H](N)C(=O)O

How the values were obtained:
Type in all cases: cell-based
[1] = tested on: Acinetobacter baumannii DSM 30008
How it was run: (§1)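 Read-out is the minimal inhibitory concentration in μg/mL, taken as the lowest peptide level without visible growth after 18-20 h at 35° C. Testing followed CLSI broth microdilution in cation-adjusted Mueller-Hinton II broth plus 0.002% Polysorbate 80, with roughly 10^6 CFU/mL.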

[2] = tested on: Pseudomonas aeruginosa ATCC 27853
How it was run: as §1

[3] = tested on: Klebsiella pneumoniae SSI #3010
How it was run: as §1

[4] = tested on: Klebsiella pneumoniae 968733
[5] = tested on: Escherichia coli ATCC 25922
How it was run: as §1

[6] = tested on: Acinetobacter baumannii 872842
[7] = tested on: Escherichia coli 926415
[8] = tested on: human red blood cells (hRBC); assay: Hemolysis of human red blood cells
How it was run: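 Hemolysis was read as supernatant absorbance at 540 nm and expressed as a percentage of Triton X-100 (2.5%) lysis. Washed human red cells (20% v/v) had been exposed to each peptide at 100 μg/mL for 1 h at 37° C.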

[9] = red cells of human, 1 h, 100 μg/mL
[10] = clinical isolate, Mueller-Hinton II broth, P-80 0.002% present

SMILES | Acinetobacter baumannii DSM 30008 MIC ([1]; DSM 30008) | Pseudomonas aeruginosa ATCC 27853 MIC ([2]; ATCC 27853) | Klebsiella pneumoniae SSI #3010 MIC ([3]; SSI #3010) | Klebsiella pneumoniae 968733 MIC [4]; 968733 | Escherichia coli ATCC 25922 MIC ([5]; ATCC 25922) | Acinetobacter baumannii 872842 MIC [6]; 872842 | Escherichia coli 926415 MIC [7]; 926415 | Hemolysis at 100 μg/mL [8, 9] | Hemolysis at 100 μg/mL ([8]; red cells of human, 1 h, 100) | Acinetobacter baumannii DSM 30008 MIC ([1]; Mueller-Hinton II broth) | Pseudomonas aeruginosa ATCC 27853 MIC ([2]; Mueller-Hinton II broth) | Klebsiella pneumoniae SSI #3010 MIC ([3]; Mueller-Hinton II broth) | Klebsiella pneumoniae 968733 MIC [4, 10] | Escherichia coli ATCC 25922 MIC ([5]; Mueller-Hinton II broth) | Acinetobacter baumannii 872842 MIC [6, 10] | Escherichia coli 926415 MIC [7, 10] | Hemolysis at 100 μg/mL ([8]; 100 μg/mL, 20% hRBC, 1 h at 37° C.)
CCCC[C@@H]1NC(=O)[C@@H]2CCCN2C(=O)[C@H]2CCCN2C(=O)[C@H](CO)NC(=O)[C@H](C)NC(=O)[C@H](C(C)(C)C)NC(=O)[C@H](CCN)NC(=O)[C@H](Cc2c[nH]c3ccccc23)NC(=O)[C@@H](N)CSSC[C@@H](C(=O)N[C@H](CCN)C(=O)N[C@H]2CCN(C)C(=O)[C@H]([C@@H](C)O)NC(=O)[C@H](CCN)NC(=O)[C@H](CCN)NC(=O)[C@H](CC(C)C)NC(=O)[C@@H](Cc3ccccc3)NC(=O)[C@H](CCN)NC2=O)NC(=O)[C@H](CCCN)NC(=O)[C@H](CCN)NC(=O)[C@H](Cc2ccc(O)cc2)NC(=O)[C@H](CO)NC1=O [Ex. 215] | 0.25 µg/mL | 1 µg/mL | 0.25 µg/mL | 0.5 µg/mL | 0.25 µg/mL | 1 µg/mL | 0.25 µg/mL | <1% |  |  |  |  |  |  |  |  | 
CCCC[C@@H]1NC(=O)[C@@H]2CCCN2C(=O)[C@H]2CCCN2C(=O)[C@H](CO)NC(=O)[C@H](C)NC(=O)[C@H](C(C)(C)C)NC(=O)[C@H](CCN)NC(=O)[C@H](Cc2c[nH]c3ccccc23)NC(=O)[C@H](CCN)NC(=O)[C@@H](CCN)NC(=O)[C@H](CCC(=O)N[C@H](CCN)C(=O)N[C@H]2CCNC(=O)[C@H]([C@@H](C)O)NC(=O)[C@H](CCN)NC(=O)[C@H](CCN)NC(=O)[C@H](CC(C)C)NC(=O)[C@@H](Cc3ccccc3)NC(=O)[C@H](CCN)NC2=O)NC(=O)[C@H](CCN)NC(=O)[C@H](Cc2ccc(O)cc2)NC(=O)[C@H](CO)NC1=O [Ex. 65] (I: cyclo([Nle]SY[Dab]E[dDab][Dab]W[Dab][Tle]AS[dP]P) / II: [dDab][Dab][Dab][dF]L[Dab][Dab]T; amide I:5-II:N; lactam II:2-II:C) | 2 µg/mL | 1 µg/mL | 1 µg/mL | 2 µg/mL | 1 µg/mL | 4 µg/mL | 1 µg/mL |  | <1% |  |  |  |  |  |  |  | 
CC(C)C[C@@H]1NC(=O)[C@@H](CC(C)C)NC(=O)[C@H](CCN)NC(=O)[C@@H](NC(=O)[C@H](CCN)NC(=O)[C@@H](NC(=O)[C@H](CCN)NC(=O)CC[C@@H]2NC(=O)[C@@H]3CSSC[C@H](NC(=O)[C@H](Cc4c[nH]c5ccccc45)NC(=O)[C@H](CCN)NC(=O)[C@@H](CCN)NC2=O)C(=O)N[C@@H](C(C)(C)C)C(=O)N[C@@H]([C@@H](C)O)C(=O)N[C@@H](CO)C(=O)N2CCC[C@@H]2C(=O)N2CCC[C@H]2C(=O)N[C@@H](CC(C)C)C(=O)N[C@@H](CO)C(=O)N[C@@H](Cc2ccc(O)cc2)C(=O)N3)[C@@H](C)O)CCNC(=O)[C@H]([C@@H](C)O)NC(=O)[C@H](CCN)NC(=O)[C@H](CCN)NC1=O [Ex. 98] (I: cyclo(LSYCE[dDab][Dab]WC[Tle]TS[dP]P) / II: [Dab]T[Dab][Dab][Dab][dL]L[Dab][Dab]T; disulfide I:4-I:9; amide I:5-II:N; lactam II:4-II:C) |  |  |  |  |  |  |  |  |  | 0.0625 µg/mL | 0.25 µg/mL | 0.125 µg/mL | 0.5 µg/mL | 0.125 µg/mL | 0.25 µg/mL | 0.5 µg/mL | 2%
CC(C)C[C@@H]1NC(=O)[C@H](C)NC(=O)[C@H]2CCCN2C(=O)[C@H](CO)NC(=O)[C@H](C)NC(=O)[C@H](C(C)C)NC(=O)[C@@H](NC(=O)[C@@H](N)Cc2c[nH]c3ccccc23)CSSC[C@@H](C(=O)N[C@@H](CCN)C(=O)N[C@@H](CCN)C(=O)N[C@H](C(=O)N[C@@H](CCN)C(=O)N[C@H]2CCNC(=O)[C@H]([C@@H](C)O)NC(=O)[C@H](CCN)NC(=O)[C@H](CCN)NC(=O)[C@H](CC(C)C)NC(=O)[C@@H](CC(C)C)NC(=O)[C@H](CCN)NC2=O)[C@@H](C)O)NC(=O)[C@H](Cc2ccc(O)cc2)NC(=O)[C@H](CO)NC1=O [Ex. 125] (H-WCVAS[dP]ALSYC[Dab][Dab]T[Dab][Dab][Dab][dL]L[Dab][Dab]T; disulfide 2-11; lactam 16-C) | 0.125 µg/mL | 0.5 µg/mL | 0.125 µg/mL | 1 µg/mL | 0.0625 µg/mL | 0.0625 µg/mL | 0.25 µg/mL | 1% |  |  |  |  |  |  |  |  | 
